The source of these data is publication PMC12136037, “Type II kinase inhibitors that target Parkinson’s disease–associated LRRK2” (Science Advances, 2025).

Like-named read-outs stand apart in the source and are kept apart here.

What all share (assay): DSF 100 kinase selectivity screen;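 also: compound tested at 20 µM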
Holding throughout (type): binding

In test [1] the target is T1, ~100 representative kinases (Homo sapiens, UniProt O00444).
T1 construct: Recombinant protein kinase domains with a concentration of 2 μM
T1 sequence (O00444 1-970): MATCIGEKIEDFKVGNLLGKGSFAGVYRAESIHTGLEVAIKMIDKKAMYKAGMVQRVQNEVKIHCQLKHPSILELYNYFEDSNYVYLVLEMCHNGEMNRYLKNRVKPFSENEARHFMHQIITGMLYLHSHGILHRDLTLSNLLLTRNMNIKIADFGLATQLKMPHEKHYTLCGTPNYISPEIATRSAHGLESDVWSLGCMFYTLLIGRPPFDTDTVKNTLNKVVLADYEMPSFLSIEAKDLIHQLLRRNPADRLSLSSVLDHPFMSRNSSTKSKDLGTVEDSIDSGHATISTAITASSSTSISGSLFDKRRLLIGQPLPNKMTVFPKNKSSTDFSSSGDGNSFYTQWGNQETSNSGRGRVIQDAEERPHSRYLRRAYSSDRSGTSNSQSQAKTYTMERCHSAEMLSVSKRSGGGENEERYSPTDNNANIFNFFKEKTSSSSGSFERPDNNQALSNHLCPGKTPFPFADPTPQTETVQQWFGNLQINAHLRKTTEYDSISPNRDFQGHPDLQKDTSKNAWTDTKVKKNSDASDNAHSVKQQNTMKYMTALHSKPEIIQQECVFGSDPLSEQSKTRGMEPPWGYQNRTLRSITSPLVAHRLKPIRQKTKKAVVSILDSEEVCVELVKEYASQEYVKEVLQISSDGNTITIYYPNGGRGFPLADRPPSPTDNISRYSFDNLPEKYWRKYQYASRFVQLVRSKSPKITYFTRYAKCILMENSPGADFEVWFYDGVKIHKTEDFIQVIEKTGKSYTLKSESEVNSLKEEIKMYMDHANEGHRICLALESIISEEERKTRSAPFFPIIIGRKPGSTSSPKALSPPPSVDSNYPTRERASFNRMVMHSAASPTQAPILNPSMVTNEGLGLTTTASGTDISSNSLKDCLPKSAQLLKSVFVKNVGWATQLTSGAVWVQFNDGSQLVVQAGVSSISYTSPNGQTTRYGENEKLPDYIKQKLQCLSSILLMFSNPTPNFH
The settings on record: protein PLK4; average of three replicates. The gist of the method:
(§1)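 Each kinase domain, at 2 μM, is mixed with 20 μM test compound and SYPRO Orange in Hepes (20 mM, pH 7.5) with 500 mM NaCl. Temperature is then raised at 3°C/min and fluorescence-monitored unfolding yields the melting temperature change, ΔTm in degrees Celsius.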

The target in test [2] is T2, ~100 representative kinases (Homo sapiens, UniProt P29317).
T2 construct: Recombinant protein kinase domains with a concentration of 2 μM
T2 sequence (P29317 24-976): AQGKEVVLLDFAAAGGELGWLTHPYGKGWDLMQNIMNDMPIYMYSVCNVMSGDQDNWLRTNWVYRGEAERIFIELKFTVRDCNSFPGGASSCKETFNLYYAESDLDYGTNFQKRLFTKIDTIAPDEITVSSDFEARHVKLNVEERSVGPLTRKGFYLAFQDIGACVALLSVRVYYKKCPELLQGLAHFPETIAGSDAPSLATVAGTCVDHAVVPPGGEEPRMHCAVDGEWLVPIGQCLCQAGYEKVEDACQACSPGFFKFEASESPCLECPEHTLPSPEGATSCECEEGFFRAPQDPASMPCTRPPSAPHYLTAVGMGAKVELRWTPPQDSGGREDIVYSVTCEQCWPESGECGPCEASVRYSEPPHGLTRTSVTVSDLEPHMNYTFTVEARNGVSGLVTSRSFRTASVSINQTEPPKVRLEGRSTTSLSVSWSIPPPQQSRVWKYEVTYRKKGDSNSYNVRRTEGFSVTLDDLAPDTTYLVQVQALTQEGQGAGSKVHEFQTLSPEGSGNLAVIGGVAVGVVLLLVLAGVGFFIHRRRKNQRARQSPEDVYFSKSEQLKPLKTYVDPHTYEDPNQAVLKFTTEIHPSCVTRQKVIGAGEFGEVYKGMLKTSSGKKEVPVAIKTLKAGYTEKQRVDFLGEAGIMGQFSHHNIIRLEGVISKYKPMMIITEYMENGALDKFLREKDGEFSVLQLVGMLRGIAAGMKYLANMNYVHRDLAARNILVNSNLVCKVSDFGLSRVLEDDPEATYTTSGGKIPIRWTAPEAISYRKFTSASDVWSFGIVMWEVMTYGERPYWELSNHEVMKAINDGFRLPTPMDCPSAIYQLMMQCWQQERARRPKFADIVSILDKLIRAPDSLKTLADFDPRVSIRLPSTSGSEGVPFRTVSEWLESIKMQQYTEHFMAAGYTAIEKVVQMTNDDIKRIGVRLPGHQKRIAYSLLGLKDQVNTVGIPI
Conditions: Protein EPHA2; average of three replicates. Summed up:
as §1

Test [3] concerns the target T3, ~100 representative kinases (Homo sapiens, UniProt P22830).
T3 construct: Recombinant protein kinase domains with a concentration of 2 μM
T3 sequence (P22830 55-423): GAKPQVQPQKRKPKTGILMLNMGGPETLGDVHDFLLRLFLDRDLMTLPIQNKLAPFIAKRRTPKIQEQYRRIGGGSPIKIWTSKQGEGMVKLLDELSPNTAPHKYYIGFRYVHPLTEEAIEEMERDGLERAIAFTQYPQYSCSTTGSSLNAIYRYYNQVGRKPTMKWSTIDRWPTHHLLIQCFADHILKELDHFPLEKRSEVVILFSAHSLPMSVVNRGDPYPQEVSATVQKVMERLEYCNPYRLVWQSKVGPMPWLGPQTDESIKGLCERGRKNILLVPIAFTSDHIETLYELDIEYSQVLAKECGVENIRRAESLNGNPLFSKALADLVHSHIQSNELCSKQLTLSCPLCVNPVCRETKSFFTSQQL
Conditions: protein FECH; average of three replicates. The gist of the method: as §1

Test [4] addresses T4, ~100 representative kinases (Homo sapiens, UniProt Q9H2G2).
T4 construct: Recombinant protein kinase domains with a concentration of 2 μM
Summed up:
as §1

In test [5] the target is T5, ~100 representative kinases (Homo sapiens, UniProt Q6PHR2).
T5 construct: Recombinant protein kinase domains with a concentration of 2 μM
T5 sequence (Q6PHR2 1-472): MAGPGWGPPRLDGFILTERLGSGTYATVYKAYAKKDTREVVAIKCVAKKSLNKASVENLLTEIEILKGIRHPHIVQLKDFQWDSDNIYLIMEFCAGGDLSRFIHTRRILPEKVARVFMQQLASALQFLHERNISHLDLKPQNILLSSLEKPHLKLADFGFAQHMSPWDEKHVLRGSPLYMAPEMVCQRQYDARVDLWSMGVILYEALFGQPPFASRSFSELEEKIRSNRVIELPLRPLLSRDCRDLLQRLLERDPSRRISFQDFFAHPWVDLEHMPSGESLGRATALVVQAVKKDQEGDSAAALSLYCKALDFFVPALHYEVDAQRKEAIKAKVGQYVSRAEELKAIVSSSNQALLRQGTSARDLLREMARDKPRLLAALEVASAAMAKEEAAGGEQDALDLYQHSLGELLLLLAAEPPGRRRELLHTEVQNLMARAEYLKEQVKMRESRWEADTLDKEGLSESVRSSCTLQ
The settings on record: Protein ULK3; DSF; average of three replicates. Summed up: as §1

Test [6] has as its target T6, ~100 representative kinases (Homo sapiens, UniProt P45985).
T6 construct: Recombinant protein kinase domains with a concentration of 2 μM
T6 sequence (P45985 1-399): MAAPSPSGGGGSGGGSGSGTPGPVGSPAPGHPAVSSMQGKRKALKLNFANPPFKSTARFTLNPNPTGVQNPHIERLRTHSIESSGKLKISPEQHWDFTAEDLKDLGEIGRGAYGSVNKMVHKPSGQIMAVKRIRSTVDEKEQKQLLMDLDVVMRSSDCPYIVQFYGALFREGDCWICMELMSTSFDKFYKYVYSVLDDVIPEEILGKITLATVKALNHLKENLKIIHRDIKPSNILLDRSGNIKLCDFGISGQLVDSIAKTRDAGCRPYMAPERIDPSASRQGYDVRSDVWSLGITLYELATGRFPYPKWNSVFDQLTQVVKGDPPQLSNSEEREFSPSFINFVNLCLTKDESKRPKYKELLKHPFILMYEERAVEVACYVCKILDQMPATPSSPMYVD
The settings on record: protein MAP2K4; average of three replicates. Summed up: as §1

In test [7] the target is T7, ~100 representative kinases (Homo sapiens, UniProt O95747).
T7 construct: Recombinant protein kinase domains with a concentration of 2 μM
T7 sequence (O95747 whole entry, the tested form may be a part): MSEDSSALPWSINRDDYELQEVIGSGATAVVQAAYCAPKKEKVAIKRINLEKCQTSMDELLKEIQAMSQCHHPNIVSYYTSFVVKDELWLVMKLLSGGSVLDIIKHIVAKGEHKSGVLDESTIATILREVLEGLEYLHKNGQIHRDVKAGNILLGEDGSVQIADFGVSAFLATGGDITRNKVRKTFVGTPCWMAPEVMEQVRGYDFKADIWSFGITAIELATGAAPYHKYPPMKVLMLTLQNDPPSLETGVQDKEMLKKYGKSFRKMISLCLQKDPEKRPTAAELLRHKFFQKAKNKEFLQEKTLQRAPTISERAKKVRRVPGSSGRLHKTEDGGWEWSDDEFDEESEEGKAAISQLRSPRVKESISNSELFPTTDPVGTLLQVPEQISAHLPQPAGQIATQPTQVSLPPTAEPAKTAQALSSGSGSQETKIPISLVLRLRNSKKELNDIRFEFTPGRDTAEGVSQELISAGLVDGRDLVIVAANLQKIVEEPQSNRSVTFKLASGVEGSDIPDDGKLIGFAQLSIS
Conditions: protein OSR1; average of three replicates. Summed up: as §1

[8] abbreviates: Protein SLK, DSF, average of three replicates.

T4 sequence (Q9H2G2 whole entry, the tested form may be a part): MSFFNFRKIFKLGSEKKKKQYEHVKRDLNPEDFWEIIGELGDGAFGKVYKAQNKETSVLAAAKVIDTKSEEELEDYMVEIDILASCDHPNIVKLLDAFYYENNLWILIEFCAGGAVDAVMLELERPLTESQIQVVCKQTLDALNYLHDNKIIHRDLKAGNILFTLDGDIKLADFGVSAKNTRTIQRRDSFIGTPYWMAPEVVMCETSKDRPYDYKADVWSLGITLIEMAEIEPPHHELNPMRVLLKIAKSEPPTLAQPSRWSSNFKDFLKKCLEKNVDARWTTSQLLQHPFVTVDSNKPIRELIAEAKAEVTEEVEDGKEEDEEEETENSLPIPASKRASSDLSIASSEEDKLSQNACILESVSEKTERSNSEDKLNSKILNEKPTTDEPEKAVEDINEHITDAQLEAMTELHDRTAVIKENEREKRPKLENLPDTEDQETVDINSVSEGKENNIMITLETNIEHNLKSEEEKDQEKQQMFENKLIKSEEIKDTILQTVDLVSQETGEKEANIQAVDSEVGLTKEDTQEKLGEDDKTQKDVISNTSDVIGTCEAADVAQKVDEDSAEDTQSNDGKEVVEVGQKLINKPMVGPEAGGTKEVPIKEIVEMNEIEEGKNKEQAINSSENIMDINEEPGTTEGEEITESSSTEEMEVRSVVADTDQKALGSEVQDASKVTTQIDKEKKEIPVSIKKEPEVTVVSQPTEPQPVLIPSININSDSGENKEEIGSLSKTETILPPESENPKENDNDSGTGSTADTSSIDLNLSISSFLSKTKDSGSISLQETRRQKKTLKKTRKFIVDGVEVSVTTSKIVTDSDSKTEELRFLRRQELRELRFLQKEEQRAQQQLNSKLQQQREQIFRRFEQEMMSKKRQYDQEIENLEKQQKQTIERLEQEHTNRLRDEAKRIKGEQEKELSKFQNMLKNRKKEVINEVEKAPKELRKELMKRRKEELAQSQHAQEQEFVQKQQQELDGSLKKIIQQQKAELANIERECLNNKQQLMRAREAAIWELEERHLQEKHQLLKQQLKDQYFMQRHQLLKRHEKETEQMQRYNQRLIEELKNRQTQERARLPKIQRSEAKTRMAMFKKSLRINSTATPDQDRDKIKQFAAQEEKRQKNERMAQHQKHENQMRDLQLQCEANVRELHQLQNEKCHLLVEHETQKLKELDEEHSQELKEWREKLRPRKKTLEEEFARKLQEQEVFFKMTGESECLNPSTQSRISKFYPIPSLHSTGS

On to `O=C(Nc1cccc(-c2c[nH]c3ncnc(N4CCOCC4)c23)c1)C1(C(=O)Nc2ccc(F)c(Cl)c2)CC1` [Compound 18], for which the dTm in test [1] is listed as 7.28 K; in test [2] it was 4.93 K; in test [3] it was -2.64 K; in test [4] (setting [8]), 8.41 K; in test [5], 9.54 K; in test [6], 6.47 K. The compound also displayed a dTm in test [7] of 0.31 K.

With `CCc1ccc(NC(=O)C2(C(=O)Nc3cccc(-c4c[nH]c5ncnc(N6CCOCC6)c45)c3)CC2)cc1` [Compound 15], the dTm in test [1] was 9.77 K; in test [2] it was 4.88 K; in test [3] it was -8.07 K; in test [4] (setting [8]), 5.04 K; in test [5], 8.77 K; in test [6], 6.81 K. This compound showed a dTm in test [7] of 0.69 K.

As to `CCNc1nc(Nc2cc(F)c(C(=O)N3CCOCC3)cc2OC)ncc1C(F)(F)F` [GNE-7915], the dTm was 1.52 K in test [1]; 0.40 K in test [2]; 0.62 K in test [4] (setting [8]); 1.79 K in test [5]; 1.26 K in test [6]; 0.21 K in test [7].

In the case of `O=C(Nc1cccc(-c2c[nH]c3ncnc(N4CCOCC4)c23)c1)c1cccn(-c2ccc(F)cc2)c1=O` [Compound 4], the dTm is 8.52 K in test [1]; 6.09 K in test [2]; 2.76 K in test [3]; 6.46 K in test [4] (setting [8]); 8.63 K in test [5]; 6.40 K in test [6]. In test [7], this compound yielded a dTm of 1.98 K.

As to `Cc1ccc(C(=O)Nc2ccc(CN3CCN(C)CC3)c(C(F)(F)F)c2)cc1C#Cc1cnc2[nH]ncc2c1` [GZD-824, reference compound], the dTm in test [1] was determined as 2.97 K; in test [2], 17.23 K; in test [4], 15.82 K; in test [5], 9.35 K; in test [6], 1.62 K; in test [7] it was 0.93 K.

`O=C(Nc1ccccc1)C1(C(=O)Nc2cccc(-c3c[nH]c4ncnc(N5CCOCC5)c34)c2)CC1` [Compound 12]: the dTm is recorded as 6.79 K in test [1]; 5.20 K in test [2]; 0.29 K in test [3]; 5.53 K in test [4] (setting [8]); 7.80 K in test [5]; 5.86 K in test [6]. Further, the dTm in test [7] came out at 1.28 K.

With `Cc1ccc(C(=O)Nc2ccc(CN3CCN(C)CC3)c(C(F)(F)F)c2)cc1C#Cc1c[nH]c2ncnc(N3CCOCC3)c12` [Compound 1], the dTm in test [1] was found to be 6.48 K; in test [2], 3.44 K; in test [3], 0.00 K; in test [5], 9.22 K; in test [6], 7.64 K; in test [7], 1.78 K.

With `Cc1cc(F)ccc1NC(=O)C1(C(=O)Nc2cccc(-c3c[nH]c4ncnc(N5CCOCC5)c34)c2)CC1` [Compound 24], the dTm stood at 7.17 K in test [1]; 3.46 K in test [2]; 0.38 K in test [3]; 3.45 K in test [4] (setting [8]); 7.53 K in test [5]; 5.80 K in test [6]. This compound came in with a dTm in test [7] of 0.69 K.

Turning to `O=C(Nc1cc(F)cc(Br)c1)C1(C(=O)Nc2cccc(-c3c[nH]c4ncnc(N5CCOCC5)c34)c2)CC1` [Compound 27], the dTm is 0.00 K in test [1]; 0.41 K in test [2]; -2.87 K in test [3]; 3.29 K in test [4] (setting [8]); 7.46 K in test [5]; 5.62 K in test [6]. Further, the dTm in test [7] was determined as 0.75 K.

Take `O=C(Nc1ccc(Cl)cc1)C1(C(=O)Nc2cccc(-c3c[nH]c4ncnc(N5CCOCC5)c34)c2)CC1` [Compound 13]: the dTm in test [1] is listed as 9.01 K; in test [2] it was 8.00 K; in test [3], -6.06 K; in test [4] (setting [8]), 7.45 K; in test [5], 9.91 K; in test [6], 6.61 K. Moreover, the dTm in test [7] was found to be 2.33 K.

With `COc1cc(S(C)(=O)=O)ccc1Nc1nc(N(C)C)c2c(Cl)c[nH]c2n1` [Compound 37], the dTm in test [1] is recorded as 4.57 K; in test [2] it was -0.56 K; in test [3] it was -0.93 K; in test [4] (setting [8]), -0.88 K; in test [5] it was 1.01 K; in test [6] it was 4.74 K. Moreover, in test [7], the dTm amounted to 1.40 K.

Take `COc1cc2c(Oc3ccc(NC(=O)C4(C(=O)Nc5ccc(F)cc5)CC4)cc3F)ccnc2cc1OCCCN1CCOCC1` [Foretinib, reference compound]: the dTm in test [1] was 16.61 K; in test [3], -11.10 K; in test [4] (setting [8]), 8.07 K; in test [5], 14.26 K; in test [6] it was 2.73 K; in test [7], -0.48 K.

As for `CN[C@@H]1C[C@H]2O[C@@](C)([C@@H]1OC)n1c3ccccc3c3c4c(c5c6ccccc6n2c5c31)C(=O)NC4` [Staurosporine], the dTm in test [1] amounted to 19.68 K; in test [7] it was 8.41 K.

For `Cn1cc(-c2c[nH]c3ncnc(N4CCOCC4)c23)cc1C#N` [PFE-360], the dTm in test [1] is given as 4.43 K; in test [2] it was 0.68 K; in test [4] (setting [8]), 3.08 K; in test [5], 5.19 K; in test [6], 1.90 K; in test [7] it was -0.14 K.

In turn, `Cc1ccc(C(=O)Nc2ccc(CN3CCN(C)CC3)c(C(F)(F)F)c2)cc1C#Cc1cnc2cccnn12` [Ponatinib, reference compound] gave a dTm in test [2] of 16.48 K.

On to `C[C@@H]1CN(c2cc(-c3n[nH]c4ccc(OC5(C)CC5)cc34)ncn2)C[C@H](C)O1` [MLi2], for which the dTm in test [1] is given as 3.07 K; in test [2], 0.27 K; in test [4] (setting [8]), -1.23 K; in test [5], 0.19 K; in test [6], 0.87 K; in test [7] it was 0.07 K.
